The structures appear in SMILES notation.

The first test deals with LC-2-ad. Description: relative viability (nuclei count vs DMSO), 5 days (fraction); higher = more cells survive. Particulars: first compound 2.53 µM. A digest of the protocol:
(§1)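 Each reported value is a median over duplicate plates. It expresses relative viability: treated-well nuclei count divided by vehicle-well nuclei count. Lung cancer cell lines in 1536-well plates were dosed by pin tool a day after seeding, alone with one drug or with a fixed anchor-drug dose plus five library-drug doses (not always all listed) in √10 steps, and nuclei were counted after 5 days.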
Compound `Oc1nc(-c2ccc(C(F)(F)F)cc2)nc2c1CSCC2` [XAV939] + O=C(CCCCCCC(=O)Nc1ccccc1)NO [Vorinostat] (partner 1 µM) yielded a relative viability of 0.567.

`Oc1nc(-c2ccc(C(F)(F)F)cc2)nc2c1CSCC2` [XAV939] + O=C(c1cc(Cc2n[nH]c(=O)c3ccccc23)ccc1F)N1CCN(C(=O)C2CC2)CC1 [Olaparib] (partner 8 µM) displayed a relative viability of 0.553.

`Oc1nc(-c2ccc(C(F)(F)F)cc2)nc2c1CSCC2` [XAV939] + CC(=O)c1c(C)c2cnc(Nc3ccc(N4CCNCC4)cn3)nc2n(C2CCCC2)c1=O [Palbociclib] (partner 0.5 µM) came in with a relative viability of 0.478.

On to `C=C1C(=O)O[C@@H](CCCCCCCC)[C@@H]1C(=O)O` [C-75] + CC(=O)c1c(C)c2cnc(Nc3ccc(N4CCNCC4)cn3)nc2n(C2CCCC2)c1=O [Palbociclib] (partner 0.5 µM), for which the relative viability came to 0.381.

Take `C=C1C(=O)O[C@@H](CCCCCCCC)[C@@H]1C(=O)O` [C-75] + Nc1ncn([C@H]2C[C@H](O)[C@@H](CO)O2)c(=O)n1 [Decitabine] (partner 2 µM): the relative viability is 0.771.

The same test, now with this note: first compound 8 µM.
On to `C=C1C(=O)O[C@@H](CCCCCCCC)[C@@H]1C(=O)O` [C-75] + CC(=O)c1c(C)c2cnc(Nc3ccc(N4CCNCC4)cn3)nc2n(C2CCCC2)c1=O [Palbociclib] (partner 0.5 µM), for which the relative viability came out at 0.482.

Regarding `C=C1C(=O)O[C@@H](CCCCCCCC)[C@@H]1C(=O)O` [C-75] + Nc1ncn([C@H]2C[C@H](O)[C@@H](CO)O2)c(=O)n1 [Decitabine] (partner 2 µM), the relative viability was 0.837.

For another test, the system named is NCI-H358. Described as above. The settings on record: first compound 0.08 µM. A digest of the protocol:
as §1
In the case of `Oc1nc(-c2ccc(C(F)(F)F)cc2)nc2c1CSCC2` [XAV939] + O=C(CCCCCCC(=O)Nc1ccccc1)NO [Vorinostat] (partner 1 µM), the relative viability is 0.796.

With `Oc1nc(-c2ccc(C(F)(F)F)cc2)nc2c1CSCC2` [XAV939] + O=C(c1cc(Cc2n[nH]c(=O)c3ccccc23)ccc1F)N1CCN(C(=O)C2CC2)CC1 [Olaparib] (partner 8 µM), the relative viability was 0.615.

The compound `Oc1nc(-c2ccc(C(F)(F)F)cc2)nc2c1CSCC2` [XAV939] + CC(=O)c1c(C)c2cnc(Nc3ccc(N4CCNCC4)cn3)nc2n(C2CCCC2)c1=O [Palbociclib] (partner 0.5 µM) gave a relative viability of 0.149.

`C=C1C(=O)O[C@@H](CCCCCCCC)[C@@H]1C(=O)O` [C-75] + CC(=O)c1c(C)c2cnc(Nc3ccc(N4CCNCC4)cn3)nc2n(C2CCCC2)c1=O [Palbociclib] (partner 0.5 µM) had a relative viability of 0.137.

In turn, `C=C1C(=O)O[C@@H](CCCCCCCC)[C@@H]1C(=O)O` [C-75] + Nc1ncn([C@H]2C[C@H](O)[C@@H](CO)O2)c(=O)n1 [Decitabine] (partner 2 µM) yielded a relative viability of 0.212.

Staying with this test, now noted: first compound 0.253 µM.
`Oc1nc(-c2ccc(C(F)(F)F)cc2)nc2c1CSCC2` [XAV939] + O=C(CCCCCCC(=O)Nc1ccccc1)NO [Vorinostat] (partner 1 µM) had a relative viability of 0.49.

In the case of `Oc1nc(-c2ccc(C(F)(F)F)cc2)nc2c1CSCC2` [XAV939] + O=C(c1cc(Cc2n[nH]c(=O)c3ccccc23)ccc1F)N1CCN(C(=O)C2CC2)CC1 [Olaparib] (partner 8 µM), the relative viability amounted to 0.5.

Compound `Oc1nc(-c2ccc(C(F)(F)F)cc2)nc2c1CSCC2` [XAV939] + CC(=O)c1c(C)c2cnc(Nc3ccc(N4CCNCC4)cn3)nc2n(C2CCCC2)c1=O [Palbociclib] (partner 0.5 µM) returned a relative viability of 0.109.

With `C=C1C(=O)O[C@@H](CCCCCCCC)[C@@H]1C(=O)O` [C-75] + CC(=O)c1c(C)c2cnc(Nc3ccc(N4CCNCC4)cn3)nc2n(C2CCCC2)c1=O [Palbociclib] (partner 0.5 µM), the relative viability came out at 0.135.

Turning to `C=C1C(=O)O[C@@H](CCCCCCCC)[C@@H]1C(=O)O` [C-75] + Nc1ncn([C@H]2C[C@H](O)[C@@H](CO)O2)c(=O)n1 [Decitabine] (partner 2 µM), the relative viability stood at 0.211.

The same test, now with this note: first compound 0.8 µM.
As for `Oc1nc(-c2ccc(C(F)(F)F)cc2)nc2c1CSCC2` [XAV939] + O=C(CCCCCCC(=O)Nc1ccccc1)NO [Vorinostat] (partner 1 µM), the relative viability amounted to 0.658.

With `Oc1nc(-c2ccc(C(F)(F)F)cc2)nc2c1CSCC2` [XAV939] + O=C(c1cc(Cc2n[nH]c(=O)c3ccccc23)ccc1F)N1CCN(C(=O)C2CC2)CC1 [Olaparib] (partner 8 µM), the relative viability is 0.598.

Compound `Oc1nc(-c2ccc(C(F)(F)F)cc2)nc2c1CSCC2` [XAV939] + CC(=O)c1c(C)c2cnc(Nc3ccc(N4CCNCC4)cn3)nc2n(C2CCCC2)c1=O [Palbociclib] (partner 0.5 µM) registered a relative viability of 0.154.

`C=C1C(=O)O[C@@H](CCCCCCCC)[C@@H]1C(=O)O` [C-75] + CC(=O)c1c(C)c2cnc(Nc3ccc(N4CCNCC4)cn3)nc2n(C2CCCC2)c1=O [Palbociclib] (partner 0.5 µM) came in with a relative viability of 0.147.

For the compound `C=C1C(=O)O[C@@H](CCCCCCCC)[C@@H]1C(=O)O` [C-75] + Nc1ncn([C@H]2C[C@H](O)[C@@H](CO)O2)c(=O)n1 [Decitabine] (partner 2 µM), the relative viability came out at 0.203.

Still in this test, the particulars now being: first compound 2.53 µM.
As for `Oc1nc(-c2ccc(C(F)(F)F)cc2)nc2c1CSCC2` [XAV939] + O=C(CCCCCCC(=O)Nc1ccccc1)NO [Vorinostat] (partner 1 µM), the relative viability was 0.565.

For the compound `Oc1nc(-c2ccc(C(F)(F)F)cc2)nc2c1CSCC2` [XAV939] + O=C(c1cc(Cc2n[nH]c(=O)c3ccccc23)ccc1F)N1CCN(C(=O)C2CC2)CC1 [Olaparib] (partner 8 µM), the relative viability was found to be 0.563.

`Oc1nc(-c2ccc(C(F)(F)F)cc2)nc2c1CSCC2` [XAV939] + CC(=O)c1c(C)c2cnc(Nc3ccc(N4CCNCC4)cn3)nc2n(C2CCCC2)c1=O [Palbociclib] (partner 0.5 µM) came in with a relative viability of 0.166.

Still in this test, the particulars now being: first compound 8 µM.
Compound `C=C1C(=O)O[C@@H](CCCCCCCC)[C@@H]1C(=O)O` [C-75] + CC(=O)c1c(C)c2cnc(Nc3ccc(N4CCNCC4)cn3)nc2n(C2CCCC2)c1=O [Palbociclib] (partner 0.5 µM) showed a relative viability of 0.135.

Compound `C=C1C(=O)O[C@@H](CCCCCCCC)[C@@H]1C(=O)O` [C-75] + Nc1ncn([C@H]2C[C@H](O)[C@@H](CO)O2)c(=O)n1 [Decitabine] (partner 2 µM) returned a relative viability of 0.18.

Another test relates to LXF-289. The description is as above. Particulars: first compound 0.08 µM. A digest of the protocol: as §1
With `Oc1nc(-c2ccc(C(F)(F)F)cc2)nc2c1CSCC2` [XAV939] + O=C(CCCCCCC(=O)Nc1ccccc1)NO [Vorinostat] (partner 1 µM), the relative viability stood at 0.728.

Regarding `Oc1nc(-c2ccc(C(F)(F)F)cc2)nc2c1CSCC2` [XAV939] + O=C(c1cc(Cc2n[nH]c(=O)c3ccccc23)ccc1F)N1CCN(C(=O)C2CC2)CC1 [Olaparib] (partner 8 µM), the relative viability was determined as 1.13.

The values are drawn from the supplement of paper PMC10307832.
